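Each compound was tested at five concentrations against cells in 96-well plates for 48 hours. GI50 marks 50% less growth.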 Active and inactive are the calls of the source. No stated cut-off is given here; in the data, active = GI50 up to about 1.1 µM and inactive = higher.
How the values were obtained:
Test in all cases: NCI anticancer screen, dose series, 48 h
HCC 2998 = system: HCC 2998
CAKI-1 = system: CAKI-1
SR = system: SR
HCT-116 = system: HCT-116
A498 = system: A498
NCI-H522 = system: NCI-H522
LOX IMVI = system: LOX IMVI
UACC-62 = system: UACC-62
HOP-18 = system: HOP-18
SK-MEL-2 = system: SK-MEL-2
ACHN = system: ACHN
SF-268 = system: SF-268
SF-295 = system: SF-295
LXFL 529 = system: LXFL 529
HT-29 = system: HT-29
SK-MEL-28 = system: SK-MEL-28
KM-20L2 = system: KM-20L2
CCRF-CEM = system: CCRF-CEM
RXF 393 = system: RXF 393
Malme-3M = system: Malme-3M
KM12 = system: KM12
OVCAR-3 = system: OVCAR-3
M14 = system: M14
DLD-1 = system: DLD-1
SNB-78 = system: SNB-78
RPMI-8226 = system: RPMI-8226
NCI-H460 = system: NCI-H460
SK-MEL-5 = system: SK-MEL-5
DMS-273 = system: DMS-273
OVCAR-8 = system: OVCAR-8
OVCAR-5 = system: OVCAR-5
HCT-15 = system: HCT-15
XF498 = system: XF498
SW-620 = system: SW-620
HL-60 = system: HL-60
UACC-257 = system: UACC-257
SN12C = system: SN12C
RXF 631 = system: RXF 631
M19-MEL = system: M19-MEL
NCI-H23 = system: NCI-H23
A549 = system: A549
EKVX = system: EKVX
NCI-H226 = system: NCI-H226
K562 = system: K562
DMS-114 = system: DMS-114
IGROV-1 = system: IGROV-1
COLO 205 = system: COLO 205
MOLT-4 = system: MOLT-4
OVCAR-4 = system: OVCAR-4
786-0 = system: 786-0
UO-31 = system: UO-31
HOP-62 = system: HOP-62
SNB-19 = system: SNB-19
SF-539 = system: SF-539
SK-OV-3 = system: SK-OV-3
SNB-75 = system: SNB-75
TK-10 = system: TK-10
U-251 = system: U-251
HOP-92 = system: HOP-92

## COC(=O)CC1(O)C(=O)OCc2c1cc1n(c2=O)Cc2c-1nc1ccccc1c2OC (configuration not stated)
HCC 2998
  GI50: 3.71 µM (inactive)
CAKI-1
  GI50: 0.0673 µM (active)
SR
  GI50: < 0.01 µM (active)
HCT-116
  GI50: 0.388 µM (active)
A498
  GI50: 0.724 µM (active)
NCI-H522
  GI50: 0.29 µM (active)
LOX IMVI
  GI50: 0.0993 µM (active)
UACC-62
  GI50: 0.0869 µM (active)
HOP-18
  GI50: 0.522 µM (active)
SK-MEL-2
  GI50: 16.1 µM (inactive)
ACHN
  GI50: 0.0689 µM (active)
SF-268
  GI50: 0.133 µM (active)
SF-295
  GI50: 0.151 µM (active)
LXFL 529
  GI50: 23.2 µM (inactive)
HT-29
  GI50: 2.17 µM (inactive)
SK-MEL-28
  GI50: 27.5 µM (inactive)
KM-20L2
  GI50: 1.95 µM (inactive)
CCRF-CEM
  GI50: < 0.0171 µM (active)
RXF 393
  GI50: 0.508 µM (active)
Malme-3M
  GI50: 3.3 µM (inactive)
KM12
  GI50: 5.27 µM (inactive)
OVCAR-3
  GI50: 3.86 µM (inactive)
M14
  GI50: 0.188 µM (active)
DLD-1
  GI50: 27.4 µM (inactive)
SNB-78
  GI50: 26 µM (inactive)
RPMI-8226
  GI50: 0.582 µM (active)
NCI-H460
  GI50: 0.0185 µM (active)
SK-MEL-5
  GI50: 0.358 µM (active)
DMS-273
  GI50: 0.042 µM (active)
OVCAR-8
  GI50: 0.726 µM (active)
OVCAR-5
  GI50: 0.902 µM (active)
HCT-15
  GI50: 4.61 µM
XF498
  GI50: 13.3 µM (inactive)
SW-620
  GI50: 0.515 µM (active)
HL-60
  GI50: 0.0959 µM (active)
UACC-257
  GI50: 5.38 µM (inactive)
SN12C
  GI50: 0.097 µM (active)
RXF 631
  GI50: 1.63 µM (inactive)
M19-MEL
  GI50: 1.19 µM (inactive)
NCI-H23
  GI50: 0.188 µM (active)
A549
  GI50: 0.238 µM (active)
EKVX
  GI50: 11.1 µM (inactive)
NCI-H226
  GI50: 0.115 µM (active)
K562
  GI50: 0.918 µM (active)
DMS-114
  GI50: 0.164 µM (active)
IGROV-1
  GI50: 2.94 µM (inactive)
COLO 205
  GI50: 3.77 µM (inactive)
MOLT-4
  GI50: 0.017 µM (active)
OVCAR-4
  GI50: 4.82 µM (inactive)
786-0
  GI50: 0.136 µM (active)
UO-31
  GI50: 1.04 µM (active)
HOP-62
  GI50: 0.0461 µM (active)
SNB-19
  GI50: 0.6 µM (active)
SF-539
  GI50: 0.111 µM (active)
SK-OV-3
  GI50: 0.266 µM (active)
SNB-75
  GI50: 0.232 µM (active)
TK-10
  GI50: > 43.6 µM (inactive)
U-251
  GI50: 0.0964 µM (active)
HOP-92
  GI50: 12.3 µM (inactive)

## C=C1C(=O)C23C(O)C1CCC2C12CO[C@]3(O)[C@@H](O)C1C(C)(C)CCC2O (some centres not stated)
HCC 2998
  GI50: 16.1 µM (inactive)
CAKI-1
  GI50: 15.2 µM (inactive)
SR
  GI50: 4.31 µM (inactive)
HCT-116
  GI50: 10.4 µM (inactive)
A498
  GI50: 21.2 µM (inactive)
NCI-H522
  GI50: 0.798 µM (active)
LOX IMVI
  GI50: 16.5 µM (inactive)
UACC-62
  GI50: 11.9 µM (inactive)
HOP-18
  GI50: 11.7 µM (inactive)
SK-MEL-2
  GI50: 15.7 µM (inactive)
ACHN
  GI50: 14.1 µM (inactive)
SF-268
  GI50: 13.9 µM (inactive)
SF-295
  GI50: 16.7 µM (inactive)
LXFL 529
  GI50: 2.11 µM (inactive)
HT-29
  GI50: 13.5 µM (inactive)
SK-MEL-28
  GI50: 4.45 µM (inactive)
KM-20L2
  GI50: 16.1 µM (inactive)
CCRF-CEM
  GI50: 1.63 µM (inactive)
RXF 393
  GI50: 7.93 µM (inactive)
Malme-3M
  GI50: 5.92 µM (inactive)
KM12
  GI50: 16.1 µM (inactive)
OVCAR-3
  GI50: 16.4 µM (inactive)
M14
  GI50: 11.6 µM (inactive)
DLD-1
  GI50: 15.3 µM (inactive)
SNB-78
  GI50: 6.55 µM (inactive)
RPMI-8226
  GI50: 3.75 µM (inactive)
NCI-H460
  GI50: 11.2 µM (inactive)
SK-MEL-5
  GI50: 22.4 µM (inactive)
DMS-273
  GI50: 14.7 µM (inactive)
OVCAR-8
  GI50: 7.5 µM (inactive)
OVCAR-5
  GI50: 20.2 µM (inactive)
HCT-15
  GI50: 11.9 µM
XF498
  GI50: 2.44 µM (inactive)
SW-620
  GI50: 5.81 µM (inactive)
HL-60
  GI50: 5.01 µM (inactive)
UACC-257
  GI50: 11.6 µM (inactive)
SN12C
  GI50: 14.3 µM (inactive)
RXF 631
  GI50: 13.7 µM (inactive)
M19-MEL
  GI50: 10.7 µM (inactive)
NCI-H23
  GI50: 19.6 µM (inactive)
A549
  GI50: 18.5 µM (inactive)
EKVX
  GI50: 15 µM (inactive)
NCI-H226
  GI50: 18.8 µM (inactive)
K562
  GI50: 3.67 µM (inactive)
DMS-114
  GI50: 5.82 µM (inactive)
IGROV-1
  GI50: 15.1 µM (inactive)
COLO 205
  GI50: 2.89 µM (inactive)
MOLT-4
  GI50: 3.87 µM (inactive)
786-0
  GI50: 12.2 µM (inactive)
UO-31
  GI50: 17.1 µM (inactive)
HOP-62
  GI50: 24.4 µM (inactive)
SNB-19
  GI50: 14.8 µM (inactive)
SF-539
  GI50: 14.7 µM (inactive)
SK-OV-3
  GI50: 20.3 µM (inactive)
SNB-75
  GI50: 15.7 µM (inactive)
TK-10
  GI50: 19.4 µM (inactive)
U-251
  GI50: 17.4 µM (inactive)
HOP-92
  GI50: 3.49 µM (inactive)

Reference: ChEMBL document CHEMBL1201862, “PubChem BioAssay data set” (2004)
